We go through one compound from patent US20230349922A1, “H2 Blockers Targeting Liver Macrophages for the Prevention and Treatment of Liver Disease and Cancer” (Université de Strasbourg, priority 2020, published 2023).

SMILES strings stand for the structures.

One data set concerns Huh7.5.1dif cells. As to the kind of experiment: IL6 and TNFα expression by qRT-PCR in HCV-infected Huh7.5.1dif cells. The data set is classed as cell-based, human. The protocol:
FIG. 8. The Huh7.5.1^dif Cell-Based System Recapitulates Transcriptional Dysregulations in Human Macrophages. (A-B) HRH2 knockdown leads to CREB5 downregulation in Huh7.5.1^dif cells similar to macrophages. Macrophages (A) and Huh7.5.1^dif cells (B) were transfected with siRNA CTRL or targeting HRH2 expression and activated using LPS+IFNγ or HCV-infection respectively. HRH2, CREB5 expression and the HCV viral load were analyzed by qRT-PCR. (Macrophage=three independent experiments n=8; Huh7.5.1^dif cells=two independent experiments n=6). (C) Nizatidine treatment decreases IL6 and TNF expression in Huh7.5.1^dif cells similar to macrophage. Huh7.5.1^dif cells were HCV infected and treated with nizatidine. IL6 and TNFα expression were analyzed by qRT-PCR. […]
Real-Time qRT-PCR. cDNAs were synthetized by reverse transcription using SuperScript III First-Strand Synthesis SuperMix (Life Technologies). Expression of […] IL6, TNFα and IL1β was analyzed by quantitative real-time PCR using TaqMan Gene Expression Assays (Thermo Fisher Scientific) on the CFX96 Touch Real-Time PCR Detection System PCR system (Bio-Rad). Expression of human CCL2 and TGF was analyzed using iTaq™ Universal SYBR® Green Supermix (Bio-Rad). The 2^−ΔCT method was used for relative quantification (Schmittgen and Livak, Nature Protoc., 2008, 3: 1101-1108) of mRNA with normalization to 18S. […]
For orientation: Quantitative PCR measures a nucleic acid by following its amplification.

For data set [1] the following is noted: patients, after a 300 mg oral dose; cited from earlier work.

For the compound `CNC(=C[N+](=O)[O-])NCCSCc1csc(CN(C)C)n1` [Nizatidine, N-[2-[[[2-[(dimethylamino)methyl]-4-thizaolyl]methyl]thio]ethyl]-N′-methyl-2-nitro-1,1-ethene-diamine], in the data set with Huh7.5.1dif cells, the IL6 expression entry is “decreased” and the TNFα expression entry was “decreased”. The plasma concentrations in data set [1] is 2 to 4 µM.
